One experiment concerns HeLa cells. Briefly: Histone H3 (Ser10) phosphorylation ELISA, abrogation of camptothecin-induced G2 arrest (CHK-1 cellular assay). The format is cell-based. The settings on record: HeLa cells, camptothecin 8 hrs, then compound with nocodozole 16 hours, read-out: EC50. In a few lines:
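HeLa cells, or MiaPaCa-2 where marked, received camptothecin for 8 h, then compound with nocodazole for 16 h. Ser10-phosphorylated histone H3 in lysates was measured by ELISA with a biotinylated antibody, streptavidin-HRP and TMB. EC50 came from four-parameter sigmoid fits.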
(In general: ELISA stands for enzyme-linked immunosorbent assay.)

The target of the next experiment is T1, CHK1 (kinase domain) (Homo sapiens, UniProt O14757).
T1 construct: a solution containing 1 nM of CHK1 (kinase domain)
T1 sequence (O14757 9-265 limits assumed): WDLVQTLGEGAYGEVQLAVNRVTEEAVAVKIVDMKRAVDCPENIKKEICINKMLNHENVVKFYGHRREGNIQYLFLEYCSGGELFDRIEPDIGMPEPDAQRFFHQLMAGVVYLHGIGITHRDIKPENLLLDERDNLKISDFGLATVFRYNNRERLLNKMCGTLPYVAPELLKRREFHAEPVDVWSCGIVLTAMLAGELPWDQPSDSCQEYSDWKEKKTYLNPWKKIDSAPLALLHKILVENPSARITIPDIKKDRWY
Briefly: CHK1 Ki determination, spectrophotometric coupled (pyruvate kinase/lactate dehydrogenase) assay. In kind it is biochemical. Conditions: CHK-1 kinase domain; for Ki: 150 uM ATP, 125 uM Syntide 2; for percent inhibition (where no Ki data is available): inhibitor concentration not given. In outline: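 Ki values, or % inhibition where no Ki was obtained, come from a tight-binding fit that uses active enzyme concentration and the ATP Km. Rates were followed as NADH loss at 340 nm, with ADP production coupled via pyruvate kinase and lactate dehydrogenase. Reactions with ATP (150 uM) and Syntide 2 (125 uM) were started after the CHK1 kinase domain had stood with inhibitor for 15 min.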

Read-outs that look alike come from different tables or passages of the source. A value given as a limit tells only on which side of the number the result lay.

The EC50 is the concentration needed to bring the measured effect to its halfway point. A word on the Ki: it is a measure of affinity in units of concentration, obtained from inhibition or displacement. High values mean lower affinity, low ones higher affinity. On to `CC(Oc1ccn2c(-c3cncc(N[C@@H]4CCCNC4)n3)cnc2c1)C(F)(F)F` (stereo partly drawn) [Example 118, N-[(3R)-piperidin-3-yl]-6-[7-(2,2,2-trifluoro-1-methylethoxy)imidazo[1,2-a]pyridin-3-yl]pyrazin-2-amine], for which the EC50 with HeLa cells (Homo sapiens, HeLa) was determined as 1.11 µM. This compound had a Ki on CHK1 (kinase domain) of 0.00527 µM.
The matching figures for `CCc1cn2c(-c3cncc(N[C@@H]4CC[C@@H](C)NC4)n3)cnc2s1` [Example 106, 6-(2-ethylimidazo[2,1-b][1,3]thiazol-5-yl)-N-[(3R,6R)-6-methylpiperidin-3-yl]pyrazin-2-amine]: 0.271 µM and 0.0218 µM.
Take `FC[C@@H]1C[C@@H](Nc2cncc(-c3cnc4ccccn34)n2)CN1` [Example 67, N-[(3R,5S)-5-(fluoromethyl)pyrrolidin-3-yl]-6-imidazo[1,2-a]pyridin-3-ylpyrazin-2-amine]: the EC50 in the experiment with HeLa cells (Homo sapiens, HeLa) came out at 0.507 µM. On CHK1 (kinase domain), this compound yielded a Ki of 0.08 µM.
The matching figures for `C[C@H]1CNC[C@H]1Nc1cncc(-c2cnc3ccc(F)cn23)n1` [Example 141, 6-(6-fluoroimidazo[1,2-a]pyridin-3-yl)-N-[(3S,4S)-4-methylpyrrolidin-3-yl]pyrazin-2-amine]: 0.0778 µM and 0.01 µM.
With `CC1(Nc2cncc(-c3cnc4n3CCCC4)n2)CCNC1` (centres unmarked) [Example 98, N-(3-methylpyrrolidin-3-yl)-6-(5,6,7,8-tetrahydroimidazo[1,2-a]pyridin-3-yl)pyrazin-2-amine], the EC50 in the experiment with HeLa cells (Homo sapiens, HeLa) is not below 10 µM. Moreover, the inhibition constant (Ki) at CHK1 (kinase domain) stood at 1 µM.
Take `C[C@H]1NCCC[C@H]1Nc1cncc(-c2cnc3ccc(F)cn23)n1` [Example 94, 6-(6-fluoroimidazo[1,2-a]pyridin-3-yl)-N-[(2R,3R)-2-methylpiperidin-3-yl]pyrazin-2-amine]: in the experiment on HeLa cells, the EC50 was determined as 0.37 µM. For the same compound, the Ki at CHK1 (kinase domain) stood at 0.0206 µM.
In the case of `CC(Oc1ccn2c(-c3cncc(N[C@@H]4CCNC4)n3)cnc2c1)C(F)(F)F` (stereo partly drawn) [Example 136, N-[(3R)-pyrrolidin-3-yl]-6-[7-(2,2,2-trifluoro-1-methylethoxy)imidazo[1,2-a]pyridin-3-yl]pyrazin-2-amine], the concentration for a half-maximal effect (EC50) in the experiment with HeLa cells (Homo sapiens, HeLa) was 0.966 µM. In addition, the Ki at CHK1 (kinase domain) was found to be 0.052 µM.
The matching figures for `C[C@H]1NCCC[C@H]1Nc1cncc(-c2cnc3cc(Cl)ccn23)n1` [Example 102, 6-(7-chloroimidazo[1,2-a]pyridin-3-yl)-N-[(2R,3R)-2-methylpiperidin-3-yl]pyrazin-2-amine]: not below 10 µM and 0.0031 µM.
On to `F[C@H]1CNC[C@@H]1Nc1cncc(-c2cnc3ccccn23)n1` (relative stereo) [Example 46, Trans N-[4-fluoropyrrolidin-3-yl]-6-imidazo[1,2-a]pyridin-3-ylpyrazin-2-amine], for which the EC50 in the experiment on HeLa cells (Homo sapiens, HeLa) stood at 7.97 µM. The “percent inhibition (where no Ki data is available)” value at CHK1 (kinase domain) is listed as 29.7%^.
For `Cc1cn2c(-c3cncc(N[C@@H]4CCCNC4)n3)cnc2s1` [Example 59, 6-(2-Methylimidazo[2,1-b][1,3]thiazol-5-yl)-N-[(3R)-piperidin-3-yl]pyrazin-2-amine], the EC50 in the experiment with HeLa cells (Homo sapiens, HeLa) was 0.00909 µM. Also, the Ki on CHK1 (kinase domain) stood at 0.003 µM.
For the compound `CCc1ccn2c(-c3cncc(N[C@@H]4CCNC4)n3)cnc2c1` [Example 56, 6-(7-Ethylimidazo[1,2-a]pyridin-3-yl)-N-[(3R)-pyrrolidin-3-yl]pyrazin-2-amine], in the experiment on HeLa cells (Homo sapiens, HeLa), the EC50 worked out at 0.126 µM. In addition, at CHK1 (kinase domain), the Ki is 0.0112 µM.
As for `c1ccn2c(-c3cncc(N[C@H]4CCCNC4)n3)cnc2c1` [Example 3, 6-Imidazo[1,2-a]pyridin-3-yl-N-[(3S)-piperidin-3-yl]pyrazin-2-amine], the EC50 in the experiment on HeLa cells (Homo sapiens, HeLa) turned out to be 0.486 µM. Also, the “percent inhibition (where no Ki data is available)” value at CHK1 (kinase domain) is listed as 0%.
With `c1cn2c(-c3cncc(N[C@@H]4CCNC4)n3)cnc2s1` [Example 49, 6-Imidazo[2,1-b][1,3]thiazol-5-yl-N-[(3R)-pyrrolidin-3-yl]pyrazin-2-amine], the EC50 in the experiment on HeLa cells (Homo sapiens, HeLa) was 0.142 µM. This compound came in with a Ki on CHK1 (kinase domain) of 0.0117 µM.
On to `C[C@@H]1CNC[C@@H]1Nc1cncc(-c2cnc3ccccn23)n1` [Example 12, 6-Imidazo[1,2-a]pyridin-3-yl-N-[(3R,4R)-4-methylpyrrolidin-3-yl]pyrazin-2-amine], for which the half-maximal effective concentration (EC50) with HeLa cells (Homo sapiens, HeLa) was determined as 0.0684 µM. The compound further showed a Ki on CHK1 (kinase domain) of 0.0275 µM.
For the compound `C[C@@H]1CC[C@@H](Nc2cncc(-c3cnc4ccc(F)cn34)n2)CN1` [Example 88, 6-(6-fluoroimidazo[1,2-a]pyridin-3-yl)-N-[(3R,6R)-6-methylpiperidin-3-yl]pyrazin-2-amine], the EC50 with HeLa cells (Homo sapiens, HeLa) is not below 10 µM. Further, on CHK1 (kinase domain), the Ki worked out at 0.0907 µM.
Regarding `C[C@H]1NCCC[C@H]1Nc1cncc(-c2cnc3sccn23)n1` [Example 180, 6-(imidazo[2,1-b][1,3]thiazol-5-yl)-N-[(2R,3R)-2-methylpiperidin-3-yl]pyrazin-2-amine], the EC50 in the experiment on HeLa cells (Homo sapiens, HeLa) was not below 10 µM. Besides, the affinity on CHK1 (kinase domain) corresponds to a Ki of 0.0015 µM.
`FC(F)(F)c1ccn2c(-c3cncc(N[C@@H]4CCCNC4)n3)cnc2c1` [Example 40, N-[(3R)-piperidin-3-yl]-6-[7-(trifluoromethyl)imidazo[1,2-a]pyridin-3-yl]pyrazin-2-amine]: the EC50 in the experiment with HeLa cells (Homo sapiens, HeLa) came to 0.104 µM. The compound also showed a Ki at CHK1 (kinase domain) of 0.00443 µM.
Consider `C[C@H]1NCCC[C@@H]1Nc1cncc(-c2cnc3cnccn23)n1` [Example 171, 6-(imidazo[1,2-a]pyrazin-3-yl)-N-[(2R,3S)-2-methylpiperidin-3-yl]pyrazin-2-amine], for which the EC50 in the experiment on HeLa cells (Homo sapiens, HeLa) is not below 10 µM. Besides, on CHK1 (kinase domain), the “percent inhibition (where no Ki data is available)” value came to 21.7%^.
For `c1cnc2c(-c3cncc(N[C@@H]4CCNC4)n3)cnn2c1` [Example 121, 6-pyrazolo[1,5-a]pyrimidin-3-yl-N-[(3R)-pyrrolidin-3-yl]pyrazin-2-amine], the EC50 in the experiment on HeLa cells (Homo sapiens, HeLa) is not below 10 µM. Further, the “percent inhibition (where no Ki data is available)” value on CHK1 (kinase domain) came out at 16.5%^.
Regarding `CCc1cn2c(-c3cncc(N[C@@H]4CCCN[C@H]4C)n3)cnc2s1` [Example 170, 6-(2-ethylimidazo[2,1-b][1,3]thiazol-5-yl)-N-[(2S,3R)-2-methylpiperidin-3-yl]pyrazin-2-amine], in the experiment with HeLa cells, the EC50 was 0.414 µM. This compound gave a Ki on CHK1 (kinase domain) of 0.0111 µM.
As for `C[C@@H]1NCCC[C@@H]1Nc1cncc(-c2cnc3sccn23)n1` [Example 179, 6-(imidazo[2,1-b][1,3]thiazol-5-yl)-N-[(2S,3S)-2-methylpiperidin-3-yl]pyrazin-2-amine], the EC50 in the experiment with HeLa cells (Homo sapiens, HeLa) stood at 0.294 µM. In addition, the “percent inhibition (where no Ki data is available)” value at CHK1 (kinase domain) came out at 29.1%^.
With `C[C@@H]1NCCC[C@H]1Nc1cncc(-c2cnc3cc(Cl)ccn23)n1` [Example 104, 6-(7-chloroimidazo[1,2-a]pyridin-3-yl)-N-[(2S,3R)-2-methylpiperidin-3-yl]pyrazin-2-amine], the EC50 with HeLa cells (Homo sapiens, HeLa) is not below 10 µM. The compound further returned a Ki at CHK1 (kinase domain) of 0.0364 µM.
For `Cc1ncc(-c2cnc3ccccn23)nc1N[C@@H]1CCNC1` [Example 223, 6-(imidazo[1,2-a]pyridin-3-yl)-3-methyl-N-[(3R)-pyrrolidin-3-yl]pyrazin-2-amine], the EC50 with HeLa cells (Homo sapiens, HeLa) turned out to be 0.329 µM. The compound also yielded an inhibitory constant (Ki) on CHK1 (kinase domain) of 0.0681 µM.
The matching figures for `CCO[C@H]1CCNC[C@@H]1Nc1cncc(-c2cnc3ccccn23)n1` [Example 35, N-[(3S,4S)-4-ethoxypiperidin-3-yl]-6-(imidazo[1,2-a]pyridin-3-yl)pyrazin-2-amine]: 0.0409 µM and 0.00388 µM.
Regarding `CO[C@@H]1CNC[C@@H]1Nc1cncc(-c2cnc3ccccn23)n1` [Example 190, 6-(imidazo[1,2-a]pyridin-3-yl)-N-[(3S,4R)-4-methoxypyrrolidin-3-yl]pyrazin-2-amine], the EC50 in the experiment on HeLa cells (Homo sapiens, HeLa) came to 1.32 µM. At CHK1 (kinase domain), this compound yielded a Ki of 0.156 µM.
The matching figures for `Cc1ccn2c(-c3cncc(N[C@@H]4CCNC4)n3)cnc2c1` [Example 51, 6-(7-Methylimidazo[1,2-a]pyridin-3-yl)-N-[(3R)-pyrrolidin-3-yl]pyrazin-2-amine]: 0.0956 µM and 0.0096 µM.
The matching figures for `C[C@@H]1NCCC[C@H]1Nc1cncc(-c2cnc3cnccn23)n1` [Example 167, 6-(imidazo[1,2-a]pyrazin-3-yl)-N-[(2S,3R)-2-methylpiperidin-3-yl]pyrazin-2-amine]: not below 10 µM and 0.101 µM.
The matching figures for `C[C@@H]1CNC[C@@H]1Nc1cncc(-c2cnc3cc(C(N)=O)ccn23)n1` [Example 191, 3-(6-{[(3R,4R)-4-methylpyrrolidin-3-yl]amino}pyrazin-2-yl)imidazo[1,2-a]pyridine-7-carboxamide]: 5.07 µM and 0.0047 µM.
Turning to `COc1ccc2c(c1)ncn2-c1cncc(N[C@@H]2CCCNC2)n1` [Example 224, 6-(5-methoxy-1H-benzimidazol-1-yl)-N-[(3R)-piperidin-3-yl]pyrazin-2-amine], the EC50 with HeLa cells (Homo sapiens, HeLa) was 0.0303 µM. The same compound came in with a Ki at CHK1 (kinase domain) of 0.00239 µM.
With `CCOc1ccc2ncn(-c3cncc(N[C@@H]4CCNC4)n3)c2c1` [Example 219, 6-(6-ethoxy-1H-benzimidazol-1-yl)-N-[(3R)-pyrrolidin-3-yl]pyrazin-2-amine], the EC50 in the experiment with HeLa cells (Homo sapiens, HeLa) stood at 0.979 µM. Also, the “percent inhibition (where no Ki data is available)” value at CHK1 (kinase domain) came to 48.4%^.
On to `F[C@@H]1CCNC[C@@H]1Nc1cncc(-c2cnc3ccccn23)n1` [Example 27, N-[(3S,4R)-4-fluoropiperidin-3-yl]-6-(imidazo[1,2-a]pyridin-3-yl)pyrazin-2-amine], for which the EC50 in the experiment on HeLa cells (Homo sapiens, HeLa) is 5.58 µM. At CHK1 (kinase domain), this compound showed a Ki of 0.0539 µM.

For the origin of these results see US8518952B2, “6 substituted 2-heterocyclylamino pyrazine compounds as CHK-1 inhibitors” (Pfizer Inc., priority 2008, dated 2013).
